The values below come from patent publication US6512000B1, “Aminocarbonyl-substituted benzimidazoles having tryptase-inhibitory activity” (Boehringer Ingelheim Pharma KG, priority 1999, dated 2003).

The structures appear in SMILES notation. Counter-ions that a name gives are not always drawn.

In one data set the target is T1, rh beta tryptase (Homo sapiens, UniProt P20231).
T1 construct: purchased Promega
T1 sequence (P20231 31-275): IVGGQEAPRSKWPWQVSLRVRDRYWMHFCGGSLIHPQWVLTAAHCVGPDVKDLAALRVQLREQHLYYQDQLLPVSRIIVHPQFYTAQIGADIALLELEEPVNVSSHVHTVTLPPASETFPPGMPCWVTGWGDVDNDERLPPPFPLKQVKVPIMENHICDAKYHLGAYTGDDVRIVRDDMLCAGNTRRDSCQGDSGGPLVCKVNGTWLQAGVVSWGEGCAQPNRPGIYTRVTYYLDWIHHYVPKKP
In words: Tryptase inhibition test (cleavage of N-p-tosyl-Gly-Pro-Lys-para-nitroaniline, p-nitroaniline measured at 405 nm). As to conditions: concentration at which 50% of the tryptase enzyme activity is inhibited; substrate 0.6 mM, pH 7.4, 37° C. The class given is biochemical. The essentials: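 Recombinant human beta tryptase (0.91 U/ml) in 100 mM Tris HCl pH 7.4 with 5 mM calcium and 100 mg/ml heparin; compounds pre-incubated 5 min, then 0.6 mM tosyl-Gly-Pro-Lys-pNA added, 5 min at 37 °C. p-Nitroaniline read at 405 nm; % inhibition at 10 μM, IC50 determined when inhibition exceeded 70%.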
Consider `CCOCCCn1c(CCc2ccc(C(=N)N)cc2)nc2cc(C(=O)N(CCN)Cc3cccc(C(F)(F)F)c3)ccc21` [Example 390, 2-[2-(4-amidinophenyl)ethyl]-1-(3-ethoxypropyl)-benzimidazol-5-yl-carboxylic acid-N-(2-aminoethyl)-N-(3-trifluoromethylbenzyl)-amide], for which inhibition was half-maximal at 0.402 µM (IC50).
Still for that read-out and setting: the result for `CCOCCCn1c(CCc2ccc(C(=N)N)cc2)nc2cc(C(=O)N(CCN)Cc3ccccc3F)ccc21` [Example 406, 2-[2-(4-amidinophenyl)ethyl]-1-(3-ethoxypropyl)-benzimidazol-5-yl-carboxylic acid-N-(2-aminoethyl)-N-(2-fluorobenzyl)-amide] reads 0.392 µM.
`N=C(N)c1ccc(CCc2nc3cc(C(=O)N(CCN)Cc4ccccc4F)ccc3n2CC2CC2)cc1` [Example 410, 2-[2-(4-amidinophenyl)ethyl]-1-cyclopropylmethyl-benzimidazol-5-yl-carboxylic acid-N-(2-aminoethyl)-N-(2-fluorobenzyl)-amide] gave an IC50 of 0.626 µM.
Take `CCOCCCn1c(CCc2ccc(C(=N)N)cc2)nc2cc(C(=O)N(CCN)Cc3ccc4ccccc4c3)ccc21` [Example 422, 2-[2-(4-amidinophenyl)ethyl]-1-(3-ethoxypropyl)-benzimidazol-5-yl-carboxyiic acid-N-(2-aminoethyl)-N-(2-naphthylmethyl)-amide]: 0.364 µM corresponded to half-maximal inhibition (IC50).

The same data set, now with this note: inhibition of rh beta tryptase at 10 μM test substance; substrate N-p-tosyl-Gly-Pro-Lys-para-nitroaniline 0.6 mM, pH 7.4, 37° C., 5 minutes.
Consider `N=C(N)c1ccc(CCc2nc3cc(C(=O)N(CCN)CCCc4ccccc4)ccc3n2CCCN2CCOCC2)cc1` [Example 369, 2-[2-(4-amidinophenyl)ethyl]-1-[3-(morpholin-4-yl)-propyl]-benzimidazol-5-yl-carboxylic acid-N-(2-aminoethyl)-N-(3-phenylpropyl)-amide], for which the inhibition at 10 µM came out at 57%.
As to `N=C(N)c1ccc(CCc2nc3cc(C(=O)N(CCN)CCCc4ccccc4)ccc3n2CC2CCCO2)cc1` (centres unmarked) [Example 370, 2-[2-(4-amidinophenyl)ethyl]-1-(tetrahydrofuran-2-yl-methyl)-benzimidazol-5-yl-carboxylic acid-N-(2-aminoethyl)-N-(3-phenylpropyl)-amide], the inhibition at 10 µM was 53%.
Still for that read-out and setting: the result for `N=C(N)c1ccc(CCc2nc3cc(C(=O)N(CCN)CCCc4ccccc4)ccc3n2Cc2cccs2)cc1` [Example 371, 2-[2-(4-amidinophenyl)ethyl]-1-(2-thiophenyl-methyl)-benzimidazol-5-yl-carboxylic acid-N-(2-aminoethyl)-N-(3-phenylpropyl)-amide] reads 55%.
In the case of `CCOCCCn1c(CCc2ccc(C(=N)N)cc2)nc2cc(C(=O)N(CCN)Cc3ccc(Cl)cc3)ccc21` [Example 374, 2-[2-(4-amidinophenyl)ethyl]-1-(3-ethoxypropyi)-benzimidazol-5-yl-carboxylic acid-N-(2-aminoethyl)-N-(4-chlorbenzyl)-amide], the “% Inhibition (10 μM)” value is recorded as 62%.
`CCCCN(CCCC)CCCn1c(CCc2ccc(C(=N)N)cc2)nc2cc(C(=O)N(CCN)Cc3ccc(Cl)cc3)ccc21` [Example 375, 2-[2-(4-amidinophenyl)ethyl]-1-(3-di-n-butylaminopropyl)-benzimidazol-5-yl-carboxylic acid-N-(2-aminoethyl)-N-(4-chlorbenzyl)-amide]: the “% Inhibition (10 μM)” value came out at 58%.
In the case of `N=C(N)c1ccc(CCc2nc3cc(C(=O)N(CCN)Cc4ccc(Cl)cc4)ccc3n2CC2CC2)cc1` [Example 378, 2-[2-(4-amidinophenyl)ethyl]-1-cyclopropylmethyl-benzimidazol-5-yl-carboxylic acid-N-(2-aminoethyl)-N-(4-chlorbenzyl)-amide], the “% Inhibition (10 μM)” value is 52%.
With `Cc1ccccc1N1CCN(CCCn2c(CCc3ccc(C(=N)N)cc3)nc3cc(C(=O)N(CCN)Cc4ccc(Cl)cc4)ccc32)CC1` [Example 384, 2-[2-(4-amidinophenyl)ethyl]-1-{3-[4-(2-methylphenyl)-piperazin-1-yl]-propyl} -benzimidazol-5-yl-carboxylic acid-N-(2-aminoethyl)-N-(4-chlorbenzyl)-amide], the “% Inhibition (10 μM)” value came to 59%.
For the molecule `N=C(N)c1ccc(CCc2nc3cc(C(=O)N(CCN)Cc4ccc(Cl)cc4)ccc3n2CC2CCCO2)cc1` (centres unmarked) [Example 386, 2-[2-(4-amidinophenyl)ethyl]-1-(tetrahydrofuran-2-yl-methyl)-benzimidazol-5-yl-carboxylic acid-N-(2-aminoethyl)-N-(4-chlorbenzyl)-amide], the “% Inhibition (10 μM)” value is listed as 55%.
Same read-out and setting: to `N=C(N)c1ccc(CCc2nc3cc(C(=O)N(CCN)Cc4ccc(Cl)cc4)ccc3n2Cc2cccs2)cc1` [Example 387, 2-[2-(4-amidinophenyl)ethyl]-1-(2-thiophenyl-methyl)-benzimidazol-5-yl-carboxylic acid-N-(2-aminoethyl)-N-(4-chlorbenzyl)-amide] belongs 55%.
`CCOCCCn1c(CCc2ccc(C(=N)N)cc2)nc2cc(C(=O)N(CCN)Cc3cccc(C(F)(F)F)c3)ccc21` [Example 390, 2-[2-(4-amidinophenyl)ethyl]-1-(3-ethoxypropyl)-benzimidazol-5-yl-carboxylic acid-N-(2-aminoethyl)-N-(3-trifluoromethylbenzyl)-amide] yielded an inhibition at 10 µM of 60%.
For the molecule `N=C(N)c1ccc(CCc2nc3cc(C(=O)N(CCN)Cc4cccc(C(F)(F)F)c4)ccc3n2CC2CC2)cc1` [Example 394, 2-[2-(4-amidinophenyl)ethyl]-1-cyclopropylmethyl-benzimidazol-5-yl-carboxyiic acid-N-(2-aminoethyl)-N-(3-trifluoromethylbenzyl)-amide], the “% Inhibition (10 μM)” value came out at 52%.
Consider `Cc1ccccc1N1CCN(CCCn2c(CCc3ccc(C(=N)N)cc3)nc3cc(C(=O)N(CCN)Cc4cccc(C(F)(F)F)c4)ccc32)CC1` [Example 400, 2-[2-(4-amidinophenyl)ethyl]-1-{3-[4-(2-methylphenyl)-piperazin-1-yl]-propyl}-benzimidazol-5-yl-carboxylic acid-N-(2-aminoethyl)-N-(3-trifluoromethylbenzyl)-amide], for which 10 µM produced 52% inhibition.
`N=C(N)c1ccc(CCc2nc3cc(C(=O)N(CCN)Cc4cccc(C(F)(F)F)c4)ccc3n2CC2CCCO2)cc1` (centres unmarked) [Example 402, 2-[2-(4-amidinophenyl)ethyl]-1-(tetrahydrofuran-2-yl-methyl)-benzimidazol-5-yl-carboxylic acid-N-(2-aminoethyl)-N-(3-trifluoromethylbenzyl)-amide]: the inhibition at 10 µM turned out to be 51%.
Same read-out and setting: the result for `CCOCCCn1c(CCc2ccc(C(=N)N)cc2)nc2cc(C(=O)N(CCN)Cc3ccccc3F)ccc21` [Example 406, 2-[2-(4-amidinophenyl)ethyl]-1-(3-ethoxypropyl)-benzimidazol-5-yl-carboxylic acid-N-(2-aminoethyl)-N-(2-fluorobenzyl)-amide] reads 54%.
Still for that read-out and setting: the result for `CCOCCCn1c(CCc2ccc(C(=N)N)cc2)nc2cc(C(=O)N(CCN)Cc3ccc4ccccc4c3)ccc21` [Example 422, 2-[2-(4-amidinophenyl)ethyl]-1-(3-ethoxypropyl)-benzimidazol-5-yl-carboxyiic acid-N-(2-aminoethyl)-N-(2-naphthylmethyl)-amide] reads 58%; that for `CCOCCCn1c(CCc2ccc(C(=N)N)cc2)nc2cc(C(=O)N(Cc3ccc(CN)cc3)Cc3ccc(C(=O)OC)cc3)ccc21` [Example 438, 2-[2-(4-amidinophenyl)ethyl]-1-(3-ethoxypropyl)-benzimidazol-5-yl-carboxylic acid-N-[4-(amino-methyl)-benzyl]-N-[4-(methoxycarbonyl)-benzyl]-amide], 59%; that for `COC(=O)c1ccc(CN(Cc2ccc(CN)cc2)C(=O)c2ccc3c(c2)nc(CCc2ccc(C(=N)N)cc2)n3CCCNC(=O)Cc2ccccc2)cc1` [Example 440, 2-[2-(4-amidinophenyl)ethyl]-1-[3-(benzylcarbonylamino)-propyl]-benzimidazol-5-yl-carboxylic acid-N-[4-(amino-methyl)-benzyl]-N-[4-(methoxycarbonyl)-benzyl]-amide], 64%.
The same measure, in the same setting: the result for `COC(=O)c1ccc(CN(Cc2ccc(CN)cc2)C(=O)c2ccc3c(c2)nc(CCc2ccc(C(=N)N)cc2)n3CC2CC2)cc1` [Example 442, 2-[2-(4-amidinophenyl)ethyl]-1-cyclopropylmethyl-benzimidazol-5-yl-carboxylic acid-N-[4-(amino-methyl)-benzyl]-N-[4-(methoxycarbonyl)-benzyl]-amide] reads 59%.
Regarding `COC(=O)c1ccc(CN(Cc2ccc(CN)cc2)C(=O)c2ccc3c(c2)nc(CCc2ccc(C(=N)N)cc2)n3CCc2ccccc2)cc1` [Example 443, 2-[2-(4-amidinophenyl)ethyl]-1-(2-phenylethyl)-benzimidazol-5-yl-carboxylic acid-N-[4-(amino-methyl)-benzyl]-N-[4-(methoxycarbonyl)-benzyl]-amide], the inhibition at 10 µM came to 52%.
Still for that read-out and setting: the result for `COC(=O)c1ccc(CN(Cc2ccc(CN)cc2)C(=O)c2ccc3c(c2)nc(CCc2ccc(C(=N)N)cc2)n3CCc2ccc(Cl)cc2)cc1` [Example 444, 2-[2-(4-amidinophenyl)ethyl]-1-[2-(4-chlorophenyl)ethyl]-benzimidazol-5-yl-carboxylic acid-N-[4-(amino-methyl)-benzyl]-N-[4-(methoxycarbonyl)-benzyl]-amide] reads 53%; that for `COC(=O)c1ccc(CN(Cc2ccc(CN)cc2)C(=O)c2ccc3c(c2)nc(CCc2ccc(C(=N)N)cc2)n3Cc2ccc(C)cc2)cc1` [Example 445, 2-[2-(4-amidinophenyl)ethyl]-1-(4-methylbenzyl)-benzimidazol-5-yl-carboxylic acid-N-[4-(amino-methyl)-benzyl]-N-[4-(methoxycarbonyl)-benzyl]-amide], 52%.
Still for that read-out and setting: the result for `COC(=O)c1ccc(CN(Cc2ccc(CN)cc2)C(=O)c2ccc3c(c2)nc(CCc2ccc(C(=N)N)cc2)n3CC2CCCO2)cc1` (centres unmarked) [Example 450, 2-[2-(4-amidinophenyl)ethyl]-1-(tetrahydrofuran-2-yl-methyl)-benzimidazol-5-yl-carboxylic acid-N-[4-(amino-methyl)-benzyl]-N-[4-(methoxycarbonyl)-benzyl]-amide] reads 72%.

Test system in another data set: not given
Experiment: not given
Conditions: not given
Turning to `Cl.Cl.Cl.Cn1c(CCc2ccc(CN)cc2)nc2cc(C(=O)NCCNc3ccccc3)ccc21`, the melting point is greater than 220 °C.
Still for that read-out and setting: the result for `CCOC(=O)C(Cc1ccc(C(=N)N)cc1)N(C)C(=O)c1ccc2c(c1)nc(CCc1ccc(C(=N)N)cc1)n2C` (centres unmarked) (as salt: formate) [Example 29, Ethyl 2-{2-[2-(4-Amidinophenyl)-ethyl]-1-methyl-benzimidazol-5-yl-carbonyl-(methylamino)}-3-(4-amidinophenyl)-propionate-formate] reads 230 °C; that for `CC(=O)NCCCCC(NC(=O)c1ccc2c(c1)nc(CCc1ccc(C(=N)N)cc1)n2C)C(=O)O` (centres unmarked) (as salt: formate) [Example 34], 158 °C.

What is called IC50 is the concentration that inhibits the measured activity by half. What is called inhibition is the percentage by which the read-out fell short of the control. A higher inhibition goes with a strong effect. For orientation: melting point means the temperature of the solid-liquid transition.
